From patent publication US20260138959A1, “QUINAZOLINE DERIVATIVE COMPOUND AND USE THEREOF” (VORONOI INC., priority 2021, published 2026) come the findings set out here.

In one assay the test system is Ba/F3-c-KIT(D816V). The assay can be described thus: Proliferation inhibitory activity on Ba/F3 cell (CellTiter-Glo, 72 hours), c-KIT(D816V). The class given is cell-based. As to conditions: Mus musculus, BaF3, read-out: Ba/F3 (nM) c-KIT (D816V) (GI50 class). The protocol:
(§1) Ba/F3-TEL-PDGFRα(WT), Ba/F3-TEL-PDGFβ(WT), Ba/F3-c-KIT(D816V) (Kyinno, #KC-0138), c-KIT V560G/D816V, c-KIT D814Y were seeded at 3×10^3/100 μl/well in a clear bottom white 96-well plate. A culture solution containing compounds of 12 concentrations (0.00001-2 mM) serially diluted in 3 folds and the DMSO control group was added at 0.5 μl/well each to a final concentration of 0.00005-10 μM, and then incubated in a CO2 incubator at 37° C. for 72 hours. After 72 hours, the plate treated with the compound was taken out, CellTiter-Glo® Assay (Promega) solution was treated with 100 μl/well, followed by mixing well. After mixing well for about 10 minutes at room temperature, […] was measured using a microplate reader. The data were presented as percentages in proportion to treated cells based on the vehicle, GI50 (nM) values were calculated using GraphPad Prism 8.3.0 (GraphPad software Inc., San Diego).
(§2) The inhibitory activities of Ba/F3 expressing PDGFR-α, PDGFR-β, c-KIT(D816V), c-KIT V560G/D816V, and c-KIT D814Y measured as described above were measured and shown in Table 7 below (A: GI50≤200 nM; B: 200 nM<GI50≤500 nM; C: GI50>500 nM).
In general terms: In ATP-based viability assays light output follows the ATP content of the culture.

The test system of a further assay is c-KIT V560G/D816V. Briefly: Proliferation inhibitory activity on Ba/F3 cell (CellTiter-Glo, 72 hours), c-KIT V560G/D816V. It is filed as cell-based. As to conditions: Mus musculus, BaF3, c-KIT V560G/D816V cells, read-out: Cell (nM) c-KIT V560G/D816V (GI50 class). The protocol:
as §1, §2

Bounds are passed on as bounds.

Regarding `COc1cc2c(-c3ccc(NC(=O)Cn4cc(C(C)C)nn4)cc3)ncnc2cc1OCCCN1CCN(C)CC1` [Example 67, 2-(4-isopropyl-1H-1,2,3-triazole-1-yl)-N-(4-(6-methoxy-7-(3-(4-methylpiperazin-1-yl)propoxy)quinazolin-4-yl)phenyl)acetamide], in the assay with Ba/F3-c-KIT(D816V), the GI50 was no more than 200 nM.

For the compound `COc1cc2ncnc(-c3ccc(NC(=O)Cc4ccc(C(F)(F)F)cc4)cc3)c2cc1OCCCNC1CC1` [Example 154, N-(4-(6-(3-(cyclopropylamino)propoxy)-7-methoxyquinazolin-4-yl)phenyl)-2-(4-(trifluoromethyl)phenyl)acetamide], in the assay with Ba/F3-c-KIT(D816V), the GI50 is no more than 200 nM.

As to `COc1cc2c(-c3ccc(NC(=O)Cc4ccc(C(F)(F)F)cc4)cc3)ncnc2cc1OCC1CCCNC1` (stereo not drawn) [Example 16, N-(4-(6-methoxy-7-(piperidin-3-ylmethoxy)quinazolin-4-yl)phenyl)-2-(4-(trifluoromethyl)phenyl)acetamide], in the assay on Ba/F3-c-KIT(D816V), the GI50 was no more than 200 nM. Still for that read-out and setting: the figure for `COc1cc2c(-c3ccc(NC(=O)Cc4ccc(C(F)(F)F)cc4)cc3)ncnc2cc1OCCCN1CC2(C1)CN(C(=O)OC(C)(C)C)C2` [Example 19] is no more than 200 nM; for `COc1cc2c(-c3ccc(NC(=O)Cc4ccc(C(F)(F)F)cc4)cc3)ncnc2cc1OC[C@@H]1CCNC1` [Example 38, (R)-N-(4-(6-methoxy-7-(pyrrolidin-3-ylmethoxy)quinazolin-4-yl)phenyl)-2-(4-(trifluoromethyl)phenyl)acetamide] it is no more than 200 nM. `COc1cc2c(-c3ccc(NC(=O)Cc4ccc(C(F)(F)F)cc4)cc3)ncnc2cc1OCC1CCCN(C(=O)OC(C)(C)C)C1` (stereo not drawn) [Example 14, tert-butyl 3-(((6-methoxy-4-(4-(2-(4-(trifluoromethyl)phenyl)acetamido)phenyl)quinazolin-7-yl)oxy)methyl)piperidin-1-carboxylate]: in the assay on Ba/F3-c-KIT(D816V), the GI50 was greater than 500 nM. With `COc1ccc(CC(=O)Nc2ccc(-c3ncnc4cc(OCC5CCN(C(C)=O)CC5)c(OC)cc34)cc2)cn1` [Example 103, N-(4-(7-((1-acetylpiperidin-4-yl)methoxy)-6-methoxyquinazolin-4-yl)phenyl)-2-(6-methoxypyridin-3-yl)acetamide], the GI50 in the assay with c-KIT V560G/D816V lay in the range of 200 to 500 nM.

As to `COc1cc2c(-c3ccc(NC(=O)Cc4ccc(C(F)(F)F)cc4)cc3)ncnc2cc1OCC1CCNCC1` [Example 17, N-(4-(6-methoxy-7-(piperidin-4-ylmethoxy)quinazolin-4-yl)phenyl)-2-(4-(trifluoromethyl)phenyl)acetamide], in the assay on c-KIT V560G/D816V, the GI50 is no more than 200 nM. Same read-out and setting: the figure for `COc1cc2c(-c3ccc(NC(=O)Cn4cc(C(C)C)nn4)cc3)ncnc2cc1OCC1CCN(C)CC1` [Example 105, 2-(4-isopropyl-1H-1,2,3-triazole-1-yl)-N-(4-(6-methoxy-7-((1-methylpiperidin-4-yl)methoxy)quinazolin-4-yl)phenyl)acetamide] is greater than 500 nM; for `CCN1CCCC(COc2cc3ncnc(-c4ccc(NC(=O)Cn5cc(C(C)C)nn5)cc4)c3cc2OC)C1` (stereo not drawn) [Example 111, N-(4-(7-((1-ethylpiperidin-3-yl)methoxy)-6-methoxyquinazolin-4-yl)phenyl)-2-(4-isopropyl-1H-1,2,3-triazole-1-yl)acetamide] it is greater than 500 nM; for `COc1cc2c(-c3ccc(NC(=O)Cn4cc(C(C)(C)C)nn4)cc3)ncnc2cc1OCC1CCN(C(C)=O)CC1` [Example 108, N-(4-(7-((1-acetylpiperidin-4-yl)methoxy)-6-methoxyquinazolin-4-yl)phenyl)-2-(4-(tert-butyl)-1H-1,2,3-triazole-1-yl)acetamide] it is greater than 500 nM.

In the case of `COc1cc2c(-c3ccc(NC(=O)C(C)(C)c4ccc(F)cc4)cc3)ncnc2cc1OCC1CCNCC1` [Example 88, 2-(4-fluorophenyl)-N-(4-(6-methoxy-7-(piperidin-4-ylmethoxy)quinazolin-4-yl)phenyl)-2-methylpropanamide], the GI50 in the assay with c-KIT V560G/D816V is 200 to 500 nM. Same read-out and setting: the figure for `COc1cc2c(-c3ccc(NC(=O)Cn4cc(C(C)C)nn4)cc3)ncnc2cc1OCC1CCN(C(C)=O)CC1` [Example 107, N-(4-(7-((1-acetylpiperidin-4-yl)methoxy)-6-methoxyquinazolin-4-yl)phenyl)-2-(4-isopropyl-1H-1,2,3-triazole-1-yl)acetamide] is greater than 500 nM; for `COCCN1CCC(COc2cc3ncnc(-c4ccc(NC(=O)Cn5cc(C(C)(C)C)nn5)cc4)c3cc2OC)CC1` [Example 95, 2-(4-(tert-butyl)-1H-1,2,3-triazole-1-yl)-N-(4-(6-methoxy-7-((1-(2-methoxyethyl)piperidin-4-yl)methoxy)quinazolin-4-yl)phenyl)acetamide] it is greater than 500 nM. The same measure, in the same setting: the figure for `COc1cc2c(-c3ccc(NC(=O)Cn4cc(C(C)C)nn4)cc3)ncnc2cc1OCC1CCN(C(C)C)CC1` [Example 120, 2-(4-isopropyl-1H-1,2,3-triazole-1-yl)-N-(4-(7-((1-isopropylpiperidin-4-yl)methoxy)-6-methoxyquinazolin-4-yl)phenyl)acetamide] is greater than 500 nM. Same read-out and setting: the figure for `CCN1CCC(COc2cc3ncnc(-c4ccc(NC(=O)C5(c6ccc(F)cc6)CC5)cc4)c3cc2OC)CC1` [Example 93, N-(4-(7-((1-ethylpiperidin-4-yl)methoxy)-6-methoxyquinazolin-4-yl)phenyl)-1-(4-fluorophenyl)cyclopropane-1-carboxamide] is 200 to 500 nM; for `COc1cc2c(-c3ccc(NC(=O)Cc4ccc(C(F)(F)F)cc4)cc3)ncnc2cc1OCC1CCN(C(=O)OC(C)(C)C)CC1` [Example 15, tert-butyl 4-(((6-methoxy-4-(4-(2-(4-(trifluoromethyl)phenyl)acetamido)phenyl)quinazolin-7-yl)oxy)methyl)piperidin-1-carboxylate] it is greater than 500 nM; for `COc1cc2c(-c3ccc(NC(=O)C4(c5ccc(F)cc5)CC4)cc3)ncnc2cc1OCC1CCNCC1` [Example 91, 1-(4-fluorophenyl)-N-(4-(6-methoxy-7-(piperidin-4-ylmethoxy)quinazolin-4-yl)phenyl)cyclopropane-1-carboxamide] it is 200 to 500 nM. `COCCN1CCC(COc2cc3ncnc(-c4ccc(NC(=O)Cn5cc(C(C)C)nn5)cc4)c3cc2OC)CC1` [Example 94, 2-(4-isopropyl-1H-1,2,3-triazole-1-yl)-N-(4-(6-methoxy-7-((1-(2-methoxyethyl)piperidin-4-yl)methoxy)quinazolin-4-yl)phenyl)acetamide]: the GI50 with c-KIT V560G/D816V was greater than 500 nM.

For `COCCN1CCC(COc2cc3ncnc(-c4ccc(NC(=O)C5(c6ccc(F)cc6)CC5)cc4)c3cc2OC)CC1` [Example 92, 1-(4-fluorophenyl)-N-(4-(6-methoxy-7-((1-(2-methoxyethyl)piperidin-4-yl)methoxy)quinazolin-4-yl)phenyl)cyclopropane-1-carboxamide], the GI50 in the assay with c-KIT V560G/D816V lay in the range of 200 to 500 nM. Same read-out and setting: the figure for `CCN1CCCC(COc2cc3ncnc(-c4ccc(NC(=O)Cn5cc(C(C)(C)C)nn5)cc4)c3cc2OC)C1` (stereo not drawn) [Example 112, 2-(4-(tert-butyl)-1H-1,2,3-triazole-1-yl)-N-(4-(7-((1-ethylpiperidin-3-yl)methoxy)-6-methoxyquinazolin-4-yl)phenyl)acetamide] is greater than 500 nM; for `COc1cc2c(-c3ccc(NC(=O)Cn4cc(C(C)(C)C)nn4)cc3)ncnc2cc1OCC1CCN(C(C)C)CC1` [Example 119, 2-(4-(tert-butyl)-1H-1,2,3-triazole-1-yl)-N-(4-(7-((1-isopropylpiperidin-4-yl)methoxy)-6-methoxyquinazolin-4-yl)phenyl)acetamide] it is greater than 500 nM; for `COCCN1CCC(COc2cc3ncnc(-c4ccc(NC(=O)CCCc5ccccc5)cc4)c3cc2OC)CC1` [Example 114, N-(4-(6-methoxy-7-((1-(2-methoxyethyl)piperidin-4-yl)methoxy)quinazolin-4-yl)phenyl)-4-phenylbutanamide] it is 200 to 500 nM.

For the compound `COCCOc1cc2ncnc(-c3ccc(NC(=O)Cc4ccc(C(F)(F)F)cc4)cc3)c2cc1OC` [Example 117, N-(4-(6-methoxy-7-(2-methoxyethoxy)quinazolin-4-yl)phenyl)-2-(4-(trifluoromethyl)phenyl)acetamide], in the assay on c-KIT V560G/D816V, the GI50 is no more than 200 nM.

For `COc1cc2c(-c3ccc(NC(=O)Cc4ccc(C(F)(F)F)nc4)cc3)ncnc2cc1OCC1CCN(C(C)=O)CC1` [Example 104, N-(4-(7-((1-acetylpiperidin-4-yl)methoxy)-6-methoxyquinazolin-4-yl)phenyl)-2-(6-(trifluoromethyl)pyridin-3-yl)acetamide], the GI50 in the assay with c-KIT V560G/D816V is 200 to 500 nM. Consider `COc1cc2c(-c3ccc(NC(=O)Cn4cc(C(C)(C)C)nn4)cc3)ncnc2cc1OCC1CCN(C)CC1` [Example 106, 2-(4-(tert-butyl)-1H-1,2,3-triazole-1-yl)-N-(4-(6-methoxy-7-((1-methylpiperidin-4-yl)methoxy)quinazolin-4-yl)phenyl)acetamide], for which the GI50 in the assay with c-KIT V560G/D816V is greater than 500 nM.

For the compound `COc1cc2c(-c3ccc(NC(=O)Cc4ccc(C(F)(F)F)cc4)cc3)ncnc2cc1OCC1CCN(C(C)=O)CC1` [Example 102, N-(4-(7-((1-acetylpiperidin-4-yl)methoxy)-6-methoxyquinazolin-4-yl)phenyl)-2-(4-(trifluoromethyl)phenyl)acetamide], the GI50 in the assay on c-KIT V560G/D816V is no more than 200 nM.
